This passage reports EC50 results from patent US20250243171A1, “QUINAZOLINE COMPOUNDS FOR TREATMENT OF DISEASE” (Arthrosi Therapeutics, Inc., priority 2021, published 2025).

SMILES strings stand for the structures.

Common to all, as to assay: EC50 assay: Ba/F3 stable cell proliferation (CCK-8, 72 h)
Holding throughout (assay type): cell-based

Assay [1] concerns the target T1, Ba/F3 stable cells (Homo sapiens, UniProt P00533, DUP767-769, cells depend on it).
T1 construct: EC50 Ba/F3-EGFR V769-D770insASV; other: Ba/F3-EGFR V769-D770insASV cells, 72 h, CCK-8
The following applies: Ba/F3-EGFR V769-D770insASV cells. In outline:
(§1)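 Ba/F3 stable cells were seeded at 4,000 cells/90 μL/well in 96-well plates and held 2 h at 37° C. in 5% CO2, then given 10 μL of serially titrated compound (0.1% DMSO final). After 72 h at 37° C., CCK-8 reagent was added for 4 hours and absorbance read at 450 nm to derive EC50.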

Assay [2] has as its target T2, Ba/F3 stable cells (Homo sapiens, UniProt P04626, DUP772-775, cells depend on it).
T2 construct: EC50 Ba/F3-HER2 A775-G776insYVMA; other: Ba/F3-HER2 A775-G776insYVMA cells, 72 h, CCK-8
The following applies: Ba/F3-HER2 A775-G776insYVMA cells. Put shortly: as §1

For assay [3], the target named is T3, Ba/F3 stable cells (Homo sapiens, UniProt P00533, INS763FQEA, cells depend on it).
T3 construct: EC50 Ba/F3-EGFR A763-Y764insFQEA; other: Ba/F3-EGFR A763-Y764insFQEA cells, 72 h, CCK-8
The following applies: Ba/F3-EGFR A763-Y764insFQEA cells. In outline: as §1

For assay [4], the target named is T4, Ba/F3 stable cells (Homo sapiens, UniProt P00533, DUP768-770, cells depend on it).
T4 construct: EC50 Ba/F3-EGFR D770-N771insSVD; other: Ba/F3-EGFR D770-N771insSVD cells, 72 h, CCK-8
The conditions noted are these: Ba/F3-EGFR D770-N771insSVD cells. Put shortly:
as §1

The target in assay [5] is T5, Ba/F3 stable cells (Homo sapiens, UniProt P00533, T790M/L858R, cells depend on it).
T5 construct: EC50 Ba/F3-EGFR L858R-T790M; other: Ba/F3-EGFR L858R-T790M cells, 72 h, CCK-8
The conditions noted are these: Ba/F3-EGFR L858R-T790M cells. In outline: as §1

Assay [6] concerns the target T6, Ba/F3 stable cells (Homo sapiens, UniProt P00533, DUP771-773, cells depend on it).
T6 construct: EC50 Ba/F3-EGFR H773-V774insNPH; other: Ba/F3-EGFR H773-V774insNPH cells, 72 h, CCK-8
The following applies: Ba/F3-EGFR H773-V774insNPH cells. Put shortly:
as §1

A word on the EC50: it is the midpoint of the concentration-response curve. Read a high EC50 as lower potency in that assay.

T1 sequence (P00533 with tags, fused parts or gaps DUP767-769): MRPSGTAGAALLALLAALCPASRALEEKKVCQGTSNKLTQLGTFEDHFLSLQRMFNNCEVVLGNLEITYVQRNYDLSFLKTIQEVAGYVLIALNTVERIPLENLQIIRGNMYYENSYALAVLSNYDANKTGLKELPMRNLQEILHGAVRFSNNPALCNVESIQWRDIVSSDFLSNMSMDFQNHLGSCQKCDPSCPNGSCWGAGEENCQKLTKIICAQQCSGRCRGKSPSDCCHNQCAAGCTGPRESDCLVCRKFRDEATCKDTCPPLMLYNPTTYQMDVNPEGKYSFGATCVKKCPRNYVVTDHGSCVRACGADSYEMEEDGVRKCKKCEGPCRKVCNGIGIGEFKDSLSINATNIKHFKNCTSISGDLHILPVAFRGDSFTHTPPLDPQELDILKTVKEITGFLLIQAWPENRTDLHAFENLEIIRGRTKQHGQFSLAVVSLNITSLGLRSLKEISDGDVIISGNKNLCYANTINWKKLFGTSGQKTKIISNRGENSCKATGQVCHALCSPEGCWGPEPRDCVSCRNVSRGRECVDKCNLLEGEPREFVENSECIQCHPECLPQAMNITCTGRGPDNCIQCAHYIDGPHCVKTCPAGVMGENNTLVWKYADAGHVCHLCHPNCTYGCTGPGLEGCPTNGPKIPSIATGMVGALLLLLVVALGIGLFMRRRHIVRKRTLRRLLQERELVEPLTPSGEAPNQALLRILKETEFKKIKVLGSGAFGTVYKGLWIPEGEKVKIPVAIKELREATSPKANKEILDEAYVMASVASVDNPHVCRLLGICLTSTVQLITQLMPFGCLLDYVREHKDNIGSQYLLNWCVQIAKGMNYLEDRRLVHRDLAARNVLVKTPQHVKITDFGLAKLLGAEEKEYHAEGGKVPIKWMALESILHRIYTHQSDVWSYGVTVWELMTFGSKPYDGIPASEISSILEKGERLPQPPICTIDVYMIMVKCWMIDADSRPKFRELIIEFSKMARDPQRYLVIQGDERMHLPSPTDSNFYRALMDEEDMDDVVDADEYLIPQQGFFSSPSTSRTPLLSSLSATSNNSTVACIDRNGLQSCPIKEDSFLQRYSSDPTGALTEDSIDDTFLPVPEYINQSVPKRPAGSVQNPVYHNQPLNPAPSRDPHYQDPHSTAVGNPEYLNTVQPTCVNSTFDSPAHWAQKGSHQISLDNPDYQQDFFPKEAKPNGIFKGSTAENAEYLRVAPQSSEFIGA
T3 sequence (P00533 with tags, fused parts or gaps INS763FQEA): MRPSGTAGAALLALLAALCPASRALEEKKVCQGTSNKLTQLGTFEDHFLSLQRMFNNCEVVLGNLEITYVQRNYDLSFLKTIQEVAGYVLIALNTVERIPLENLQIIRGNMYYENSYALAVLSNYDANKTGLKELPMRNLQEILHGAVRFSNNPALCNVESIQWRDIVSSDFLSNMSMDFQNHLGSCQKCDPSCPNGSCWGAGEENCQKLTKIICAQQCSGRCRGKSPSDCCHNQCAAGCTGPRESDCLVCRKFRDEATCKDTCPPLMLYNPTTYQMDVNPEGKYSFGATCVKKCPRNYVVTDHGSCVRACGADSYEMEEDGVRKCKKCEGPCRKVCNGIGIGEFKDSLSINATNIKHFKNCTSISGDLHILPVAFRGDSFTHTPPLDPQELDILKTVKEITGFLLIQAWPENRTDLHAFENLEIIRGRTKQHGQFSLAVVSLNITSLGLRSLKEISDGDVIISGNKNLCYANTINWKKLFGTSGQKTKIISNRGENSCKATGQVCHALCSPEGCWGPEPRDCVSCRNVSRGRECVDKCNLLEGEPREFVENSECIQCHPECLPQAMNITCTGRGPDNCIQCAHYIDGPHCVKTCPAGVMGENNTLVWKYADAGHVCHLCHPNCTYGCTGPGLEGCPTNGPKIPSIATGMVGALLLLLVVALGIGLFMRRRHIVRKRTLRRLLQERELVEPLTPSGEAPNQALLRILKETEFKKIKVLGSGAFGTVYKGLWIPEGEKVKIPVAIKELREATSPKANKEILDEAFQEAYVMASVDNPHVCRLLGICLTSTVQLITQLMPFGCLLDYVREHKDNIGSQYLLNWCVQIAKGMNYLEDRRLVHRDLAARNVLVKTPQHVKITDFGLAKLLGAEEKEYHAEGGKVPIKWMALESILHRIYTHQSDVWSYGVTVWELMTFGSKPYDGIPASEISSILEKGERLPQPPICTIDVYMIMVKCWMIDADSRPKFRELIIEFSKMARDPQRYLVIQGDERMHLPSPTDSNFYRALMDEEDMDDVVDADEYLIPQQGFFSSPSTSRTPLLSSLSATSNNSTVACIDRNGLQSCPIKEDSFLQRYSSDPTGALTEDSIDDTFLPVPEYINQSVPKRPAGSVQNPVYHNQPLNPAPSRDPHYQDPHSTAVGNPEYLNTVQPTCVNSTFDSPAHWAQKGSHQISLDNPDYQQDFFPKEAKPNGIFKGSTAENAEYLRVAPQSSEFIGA
T5 sequence (P00533 whole entry T790M/L858R): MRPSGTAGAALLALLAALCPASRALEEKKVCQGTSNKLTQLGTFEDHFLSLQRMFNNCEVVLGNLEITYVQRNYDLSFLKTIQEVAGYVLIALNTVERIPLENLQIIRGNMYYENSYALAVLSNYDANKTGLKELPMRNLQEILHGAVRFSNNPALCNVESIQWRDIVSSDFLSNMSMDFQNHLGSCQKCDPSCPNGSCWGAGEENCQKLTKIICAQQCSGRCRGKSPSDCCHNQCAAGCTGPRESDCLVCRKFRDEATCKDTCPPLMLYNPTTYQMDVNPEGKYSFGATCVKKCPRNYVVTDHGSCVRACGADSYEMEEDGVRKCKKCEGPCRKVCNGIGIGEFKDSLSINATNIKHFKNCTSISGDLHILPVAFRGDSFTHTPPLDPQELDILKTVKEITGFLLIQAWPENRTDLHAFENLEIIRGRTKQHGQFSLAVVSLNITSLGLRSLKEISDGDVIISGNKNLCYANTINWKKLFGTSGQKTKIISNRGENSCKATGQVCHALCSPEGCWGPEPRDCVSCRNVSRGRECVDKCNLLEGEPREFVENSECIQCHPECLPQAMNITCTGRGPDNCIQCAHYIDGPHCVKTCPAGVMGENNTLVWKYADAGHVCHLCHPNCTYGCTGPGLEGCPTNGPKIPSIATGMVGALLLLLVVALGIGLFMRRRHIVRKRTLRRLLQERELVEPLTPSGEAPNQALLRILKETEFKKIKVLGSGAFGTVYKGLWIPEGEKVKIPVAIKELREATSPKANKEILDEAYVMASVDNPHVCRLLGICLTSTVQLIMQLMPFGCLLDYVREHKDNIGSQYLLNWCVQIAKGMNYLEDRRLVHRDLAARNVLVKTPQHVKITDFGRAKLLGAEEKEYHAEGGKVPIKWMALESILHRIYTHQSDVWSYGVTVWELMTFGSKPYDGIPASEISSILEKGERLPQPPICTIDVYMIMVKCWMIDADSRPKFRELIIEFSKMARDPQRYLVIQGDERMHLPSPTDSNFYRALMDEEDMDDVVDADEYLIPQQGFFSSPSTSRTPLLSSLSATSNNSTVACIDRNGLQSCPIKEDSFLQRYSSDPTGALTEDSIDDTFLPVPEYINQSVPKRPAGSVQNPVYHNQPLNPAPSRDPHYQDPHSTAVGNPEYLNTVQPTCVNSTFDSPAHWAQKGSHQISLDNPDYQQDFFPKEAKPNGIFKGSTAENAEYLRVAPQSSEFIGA
T2 sequence (P04626 with tags, fused parts or gaps DUP772-775): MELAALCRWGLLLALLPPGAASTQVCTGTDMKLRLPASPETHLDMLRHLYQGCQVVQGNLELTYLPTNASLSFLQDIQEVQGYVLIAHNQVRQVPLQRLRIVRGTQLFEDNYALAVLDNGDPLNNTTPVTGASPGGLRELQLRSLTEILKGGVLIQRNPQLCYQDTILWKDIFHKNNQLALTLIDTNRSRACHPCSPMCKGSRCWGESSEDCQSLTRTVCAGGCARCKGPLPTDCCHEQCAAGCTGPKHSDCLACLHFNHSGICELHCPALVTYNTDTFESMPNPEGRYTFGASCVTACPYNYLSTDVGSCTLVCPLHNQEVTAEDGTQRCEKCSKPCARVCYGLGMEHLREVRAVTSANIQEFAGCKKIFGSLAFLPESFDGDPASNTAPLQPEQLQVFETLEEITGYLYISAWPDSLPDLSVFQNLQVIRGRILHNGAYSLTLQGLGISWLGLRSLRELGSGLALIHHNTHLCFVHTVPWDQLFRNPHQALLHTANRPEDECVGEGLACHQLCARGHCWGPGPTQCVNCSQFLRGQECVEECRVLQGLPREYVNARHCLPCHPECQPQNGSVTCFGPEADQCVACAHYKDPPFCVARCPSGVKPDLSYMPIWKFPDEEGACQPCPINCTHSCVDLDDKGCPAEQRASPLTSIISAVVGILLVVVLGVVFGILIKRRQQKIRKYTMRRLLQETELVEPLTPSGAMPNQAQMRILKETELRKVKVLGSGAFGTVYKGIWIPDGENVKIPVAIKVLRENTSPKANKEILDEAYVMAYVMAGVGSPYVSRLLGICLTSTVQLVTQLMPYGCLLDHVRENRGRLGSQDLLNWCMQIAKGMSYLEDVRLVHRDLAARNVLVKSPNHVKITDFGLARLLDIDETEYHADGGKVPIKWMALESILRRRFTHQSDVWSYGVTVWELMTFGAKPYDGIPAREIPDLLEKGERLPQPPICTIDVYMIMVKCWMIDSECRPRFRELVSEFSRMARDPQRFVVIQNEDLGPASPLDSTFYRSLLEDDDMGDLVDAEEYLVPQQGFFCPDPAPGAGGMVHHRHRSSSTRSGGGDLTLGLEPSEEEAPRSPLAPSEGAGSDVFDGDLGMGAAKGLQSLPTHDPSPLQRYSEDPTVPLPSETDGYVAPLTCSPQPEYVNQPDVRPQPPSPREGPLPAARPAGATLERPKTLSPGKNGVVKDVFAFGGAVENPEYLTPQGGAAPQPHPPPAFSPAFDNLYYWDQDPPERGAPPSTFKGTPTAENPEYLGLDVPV

With `C=CC(=O)N1CCC(Oc2cc3c(N4CCN(c5cccc(Cl)c5)CC4)ncnc3cc2OC)CC1` [Compound 147, 1-(4-((4-(4-(3-chlorophenyl)piperazin-1-yl)-7-methoxyquinazolin-6-yl)oxy)piperidin-1-yl)prop-2-en-1-one], the concentration giving a half-maximal response (EC50) at Ba/F3 stable cells [1], at Ba/F3 stable cells [2], at Ba/F3 stable cells [3], on Ba/F3 stable cells [4], on Ba/F3 stable cells [5] and on Ba/F3 stable cells [6] was above 1000 nM in each case.

For `C=CC(=O)N1CCC(Oc2cc3c(Nc4ccc5ccccc5c4)ncnc3cc2OC)CC1` [Compound 148, 1-(4-((7-methoxy-4-(naphthalen-2-ylamino)quinazolin-6-yl)oxy)piperidin-1-yl)prop-2-en-1-one], the EC50 at Ba/F3 stable cells [1] is at most 200 nM; at Ba/F3 stable cells [2] it was 200 to 1000 nM; at Ba/F3 stable cells [3], at most 200 nM; on Ba/F3 stable cells [4] it was at most 200 nM; at Ba/F3 stable cells [5] it was at most 200 nM; on Ba/F3 stable cells [6], at most 200 nM.

For `C=CC(=O)N1CCC(Oc2cc3c(Nc4cccc5ccccc45)ncnc3cc2OC)CC1` [Compound 149, 1-(4-((7-methoxy-4-(naphthalen-1-ylamino)quinazolin-6-yl)oxy)piperidin-1-yl)prop-2-en-1-one], the EC50 on Ba/F3 stable cells [1], on Ba/F3 stable cells [2], on Ba/F3 stable cells [3], on Ba/F3 stable cells [4], at Ba/F3 stable cells [5] and at Ba/F3 stable cells [6] was at most 200 nM in each case.

Consider `C=CC(=O)N1CCC(Oc2cc3c(Nc4ccc5[nH]ncc5c4)ncnc3cc2OC)CC1` [Compound 150, 1-(4-((4-((1H-indazol-5-yl)amino)-7-methoxyquinazolin-6-yl)oxy)piperidin-1-yl)prop-2-en-1-one], for which the 50% effective concentration (EC50) at Ba/F3 stable cells [1] was 200 to 1000 nM; at Ba/F3 stable cells [2], above 1000 nM; on Ba/F3 stable cells [3], at most 200 nM; on Ba/F3 stable cells [4] it was above 1000 nM; on Ba/F3 stable cells [5], above 1000 nM; at Ba/F3 stable cells [6], 200 to 1000 nM.

Regarding `C=CC(=O)N1CCC(Oc2cc3c(Nc4cc5oc6ccccc6c5cc4OC)ncnc3cc2OC)CC1` [Compound 151, 1-(4-((7-methoxy-4-((2-methoxydibenzo[b,d]furan-3-yl)amino)quinazolin-6-yl)oxy)piperidin-1-yl)prop-2-en-1-one], the half-maximal effective concentration (EC50) at Ba/F3 stable cells [1], on Ba/F3 stable cells [2], at Ba/F3 stable cells [3], at Ba/F3 stable cells [4], at Ba/F3 stable cells [5] and on Ba/F3 stable cells [6] was above 1000 nM in each case.

As to `C=CC(=O)N1CCC(Oc2cc3c(Nc4ccc5c(c4)OCO5)ncnc3cc2OC)CC1` [Compound 152, 1-(4-((4-(benzo[d][1,3]dioxol-5-ylamino)-7-methoxyquinazolin-6-yl)oxy)piperidin-1-yl)prop-2-en-1-one], the concentration giving a half-maximal response (EC50) at Ba/F3 stable cells [1] was 200 to 1000 nM; on Ba/F3 stable cells [2] it was at most 200 nM; on Ba/F3 stable cells [3], at most 200 nM; at Ba/F3 stable cells [4], 200 to 1000 nM; on Ba/F3 stable cells [5] it was 200 to 1000 nM; on Ba/F3 stable cells [6] it was 200 to 1000 nM.

Take `C=CC(=O)N1CCC(Oc2cc3c(Nc4ccc5c(c4)CCC5)ncnc3cc2OC)CC1` [Compound 153, 1-(4-((4-((2,3-dihydro-1H-inden-5-yl)amino)-7-methoxyquinazolin-6-yl)oxy)piperidin-1-yl)prop-2-en-1-one]: the EC50 at Ba/F3 stable cells [1] is at most 200 nM; at Ba/F3 stable cells [2] it was 200 to 1000 nM; at Ba/F3 stable cells [3], at most 200 nM; at Ba/F3 stable cells [4], 200 to 1000 nM; on Ba/F3 stable cells [5], 200 to 1000 nM; on Ba/F3 stable cells [6] it was 200 to 1000 nM.

Turning to `C=CC(=O)N1CCC(Oc2cc3c(Nc4ccc5sc(C)nc5c4)ncnc3cc2OC)CC1` [Compound 155, 1-(4-((7-methoxy-4-((2-methylbenzo[d]thiazol-5-yl)amino)quinazolin-6-yl)oxy)piperidin-1-yl)prop-2-en-1-one], the EC50 is above 1000 nM on Ba/F3 stable cells [1]; 200 to 1000 nM at Ba/F3 stable cells [2]; at most 200 nM at Ba/F3 stable cells [3]; above 1000 nM on Ba/F3 stable cells [4]; 200 to 1000 nM on Ba/F3 stable cells [5]; above 1000 nM on Ba/F3 stable cells [6].

Consider `C=CC(=O)N1CCC(Oc2cc3c(Nc4cccc5c4CCC5)ncnc3cc2OC)CC1` [Compound 156, 1-(4-((4-((2,3-dihydro-1H-inden-4-yl)amino)-7-methoxyquinazolin-6-yl)oxy)piperidin-1-yl)prop-2-en-1-one], for which the EC50 on Ba/F3 stable cells [1] is at most 200 nM; on Ba/F3 stable cells [2] it was at most 200 nM; on Ba/F3 stable cells [3], at most 200 nM; on Ba/F3 stable cells [4], 200 to 1000 nM; at Ba/F3 stable cells [5], 200 to 1000 nM; on Ba/F3 stable cells [6], at most 200 nM.

With `C=CC(=O)N1CCC(Oc2cc3c(Nc4ccc5ccccc5n4)ncnc3cc2OC)CC1` [Compound 158, 1-(4-((7-methoxy-4-(quinolin-2-ylamino)quinazolin-6-yl)oxy)piperidin-1-yl)prop-2-en-1-one], the EC50 on Ba/F3 stable cells [1] is 200 to 1000 nM; on Ba/F3 stable cells [2], above 1000 nM; on Ba/F3 stable cells [3] it was at most 200 nM; on Ba/F3 stable cells [4], above 1000 nM; at Ba/F3 stable cells [5], at most 200 nM; on Ba/F3 stable cells [6] it was 200 to 1000 nM.

Consider `C=CC(=O)N1CCC(Oc2cc3c(Nc4cc5ccccc5cn4)ncnc3cc2OC)CC1` [Compound 159, 1-(4-((4-(isoquinolin-3-ylamino)-7-methoxyquinazolin-6-yl)oxy)piperidin-1-yl)prop-2-en-1-one], for which the EC50 was 200 to 1000 nM on Ba/F3 stable cells [1]; 200 to 1000 nM at Ba/F3 stable cells [2]; at most 200 nM on Ba/F3 stable cells [3]; above 1000 nM at Ba/F3 stable cells [4]; 200 to 1000 nM on Ba/F3 stable cells [5]; 200 to 1000 nM on Ba/F3 stable cells [6].

Take `C=CC(=O)N1CCC(Oc2cc3c(Nc4ccc5ccccc5c4Cl)ncnc3cc2OC)CC1` [Compound 160, 1-(4-((4-((1-chloronaphthalen-2-yl)amino)-7-methoxyquinazolin-6-yl)oxy)piperidin-1-yl)prop-2-en-1-one]: the EC50 on Ba/F3 stable cells [1] is at most 200 nM; at Ba/F3 stable cells [2] it was above 1000 nM; at Ba/F3 stable cells [3], at most 200 nM; at Ba/F3 stable cells [4], above 1000 nM; on Ba/F3 stable cells [5], 200 to 1000 nM; at Ba/F3 stable cells [6], 200 to 1000 nM.

Consider `C=CC(=O)N1CCC(Oc2cc3c(Nc4nccc5ccccc45)ncnc3cc2OC)CC1` [Compound 161, 1-(4-((4-(isoquinolin-1-ylamino)-7-methoxyquinazolin-6-yl)oxy)piperidin-1-yl)prop-2-en-1-one], for which the half-maximal effective concentration (EC50) is 200 to 1000 nM on Ba/F3 stable cells [1]; above 1000 nM at Ba/F3 stable cells [2]; at most 200 nM on Ba/F3 stable cells [3]; above 1000 nM at Ba/F3 stable cells [4]; 200 to 1000 nM on Ba/F3 stable cells [5]; 200 to 1000 nM at Ba/F3 stable cells [6].

Take `C=CC(=O)N1CCC(Oc2cc3c(Nc4ccnc5ccccc45)ncnc3cc2OC)CC1` [Compound 162, 1-(4-((7-methoxy-4-(quinolin-4-ylamino)quinazolin-6-yl)oxy)piperidin-1-yl)prop-2-en-1-one]: the EC50 at Ba/F3 stable cells [1] was at most 200 nM; at Ba/F3 stable cells [2], 200 to 1000 nM; on Ba/F3 stable cells [3], at most 200 nM; on Ba/F3 stable cells [4], above 1000 nM; on Ba/F3 stable cells [5], at most 200 nM; on Ba/F3 stable cells [6], 200 to 1000 nM.

`C=CC(=O)N1CCC(Oc2cc3c(Nc4ccc(Cl)c5ccccc45)ncnc3cc2OC)CC1` [Compound 164, 1-(4-((4-((4-chloronaphthalen-1-yl)amino)-7-methoxyquinazolin-6-yl)oxy)piperidin-1-yl)prop-2-en-1-one]: the EC50 at Ba/F3 stable cells [1] is at most 200 nM; at Ba/F3 stable cells [2] it was 200 to 1000 nM; at Ba/F3 stable cells [3], at most 200 nM; at Ba/F3 stable cells [4], 200 to 1000 nM; on Ba/F3 stable cells [5] it was at most 200 nM; at Ba/F3 stable cells [6], 200 to 1000 nM.
